# Measurements taken from patent US20230107642A1 (Erasca, Inc., priority 2020, published 2023).
# Biological target: T1, K-Ras G12C (Homo sapiens, UniProt P01116, G12C)
# T1 construct: This protein contained 188 amino acids in total, including an N-terminal 6-Histidine tag; made in house; host or cells: E. coli BL21
# Assay: CAF assay (% CAF; method in Example 7, not in this part)
# Format: binding
# Settings: 10 uM compound, 1 h incubation
row,Structure (SMILES),"% CAF @ 10 uM, 1h [%]"
1,"C=CC(=O)N1CCN(c2nc(=O)n3c4c(c(-c5cc(F)c(F)cc5F)c(Cl)cc24)SC[C@@H]3CC2CCN(C3COC3)CC2)[C@@H](C)C1 [Example 421, (3S)-7-((S)-4-acryloyl-2-methylpiperazin-1-yl)-9-chloro-3-((1-(oxetan-3-yl)piperidin-4-yl)methyl)-10-(2,4,5-trifluorophenyl)-2H-[1,4]thiazino[2,3,4-ij]quinazolin-5(3H)-one]",85.1
2,"C=CC(=O)N1CCN(c2nc(=O)n3c4c(c(-c5ccc(F)cc5F)c(Cl)cc24)SC[C@@H]3CN2CCN(C3CC3)CC2)[C@@H](C)C1 [Example 422, (3S)-7-((S)-4-acryloyl-2-methylpiperazin-1-yl)-9-chloro-3((4-cyclopropylpiperazin-1-yl)methyl)-10-(2,4-difluorophenyl)-2H-[1,4]thiazino[2,3,4-ij]quinazolin-5(3H)-one]",84.2
3,"C=CC(=O)N1CCN(c2nc(=O)n3c4c(c(-c5ccc(F)cc5F)c(Cl)cc24)SC[C@@H]3CC2CCN(C)CC2)[C@@H](C)C1 [Example 423, (3S)-7-((S)-4-acryloyl-2-methylpiperazin-1-yl)-9-chloro-10-(2,4-difluorophenyl)-3-((1-methylpiperidin-4-yl)methyl)-2H-[1,4]thiazino[2,3,4-ij]quinazolin-5(3H)-one]",34.1
4,"C=CC(=O)N1CCN(c2nc(=O)n3c4c(c(-c5c(F)cc(F)cc5F)c(Cl)cc24)SC[C@H]3CN2CCN(CC)CC2)[C@@H](C)C1 [Example 424, (R)-7-((S)-4-acryloyl-2-methylpiperazin-1-yl)-9-chloro-3-((4-ethylpiperazin-1-yl)methyl)-10-(2,4,6-trifluorophenyl)-2H-[1,4]thiazino[2,3,4-ij]quinazolin-5(3H)-one]",13.9
5,"C=CC(=O)N1CCN(c2nc(=O)n3c4c(c(-c5ccc(F)cc5)c(C(F)(F)F)cc24)SC[C@@H]3CC2CCN(C3COC3)CC2)[C@@H](C)C1 [Example 425, (S)-7-((S)-4-acryloyl-2-methylpiperazin-1-fluorophenyl)-3-((1-(oxetan-3-yl)piperidin-4-yl)methyl)-9-(trifluoromethyl)-2H-[1,4]thiazino[2,3,4-ij]quinazolin-5(3H)-one]",94.7
6,"C=CC(=O)N1CCN(c2nc(=O)n3c4c(c(-c5cc(Cl)c(F)cc5F)c(Cl)cc24)SC[C@@H]3CC2CCN(C3COC3)CC2)[C@@H](C)C1 [Example 426, (3S)-7-((S)-4-acryloyl-2-methylpiperazin-1-yl)-9-chloro-10-(5-chloro-2,4-difluorophenyl)-3-((1-(oxetan-3-yl)piperidin-4-yl)methyl)-2H-[1,4]thiazino[2,3,4-ij]quinazolin-5(3H)-one]",82.8
7,"C=CC(=O)N1CCN(c2nc(=O)n3c4c(c(-c5ccc(F)cc5Cl)c(Cl)cc24)SCC3)[C@@H](C)C1 [Example 427, 7-((S)-4-acryloyl-2-methylpiperazin-1-yl)-9-chloro-10-(2-chloro-4-fluorophenyl)-2,3-dihydro-5H-[1,4]thiazino[2,3,4-ij]quinazolin-5-one]",63.5
8,"C=CC(=O)N1CCN(c2nc(=O)n3c4c(c(-c5ccc(F)cc5)c(C(F)(F)F)cc24)SC[C@@H]3CC2CCN(CC(F)F)CC2)[C@@H](C)C1 [Example 428, (S)-7-((S)-4-acryloyl-2-methylpiperazin-1-yl)-3-((1-(2,2-difluoroethyl)piperidin-4-yl)methyl)-10-(4-fluorophenyl)-9-(trifluoromethyl)-2H-[1,4]thiazino[2,3,4-ij]quinazolin-5(3H)-one]",79.6
9,"C=CC(=O)N1CCN(c2nc(=O)n3c4c(c(-c5ccc(F)cc5F)c(C(F)(F)F)cc24)S(=O)(=O)C[C@@H]3CC2CCN(CC(F)F)CC2)[C@@H](C)C1 [Example 429, (3S)-7-((S)-4-acryloyl-2-methylpiperazin-1-yl)-3-((1-(2,2-difluoroethyl)piperidin-4-yl)methyl)-10-(2,4-difluorophenyl)-9-(trifluoromethyl)-2H-[1,4]thiazino[2,3,4-ij]quinazolin-5(3H)-one 1,1-dioxide]",61
10,"C=CC(=O)N1CCN(c2nc(=O)n3c4c(c(-c5ccc(F)cc5)c(C(F)(F)F)cc24)SC[C@@H]3CN2CCn3c(nnc3C(F)(F)F)C2)[C@@H](C)C1 [Example 430, (S)-7-((S)-4-acryloyl-2-methylpiperazin-1-yl)-10-(4-fluorophenyl)-9-(trifluoromethyl)-3-((3-(trifluoromethyl)-5,6-dihydro-[1,2,4]triazolo[4,3-a]pyrazin-7(8H)-yl)methyl)-2H-[1,4]thiazino[2,3,4-ij]quinazolin-5(3H)-one]",90.9
11,"C=CC(=O)N1CCN(c2nc(=O)n3c4c(c(-c5ccc(F)cc5F)c(C(F)(F)F)cc24)SC[C@@H](O)C3)[C@@H](C)C1 [Example 431, (3S)-8-((S)-4-acryloyl-2-methylpiperazin-1-yl)-11-(2,4-difluorophenyl)-3-hydroxy-10-(trifluoromethyl)-3,4-dihydro-2H,6H-[1,4]thiazepino[2,3,4-ij]quinazolin-6-one]",90
12,"C=CC(=O)N1CCN(c2nc(=O)n3c4c(c(-c5ccc(F)cc5F)c(Cl)cc24)SC[C@H]3COC2CN(CC)C2)[C@@H](C)C1 [Example 432, (3R)-7-((S)-4-acryloyl-2-methylpiperazin-1-yl)-9-chloro-10-(2,4-difluorophenyl)-3-(((1-ethylazetidin-3-yl)oxy)methyl)-2,3-dihydro-5H-[1,4]thiazino[2,3,4-ij]quinazolin-5-one]",2.6
13,"C=CC(=O)N1CCN(c2nc(=O)n3c4c(c(-c5ccc(F)cc5F)c(Cl)cc24)SC2(CC2)C3)[C@@H](C)C1 [Example 433, 7′-((S)-4-acryloyl-2-methylpiperazin-1-yl)-9′-chloro-10′-(2,4-difluorophenyl)-3′H,5′H-spiro[cyclopropane-1,2′-[1,4]thiazino[2,3,4-ij]quinazolin]-5′-one]",25.3
14,"C=CC(=O)N1CCN(c2nc(=O)n3c4c(c(-c5ccc(F)cc5F)c(C(F)(F)F)cc24)S(=O)(=O)C[C@@H]3CC2CCN(CC)CC2)[C@@H](C)C1 [Example 434, (3S)-7-((S)-4-acryloyl-2-methylpiperazin-1-yl)-10-(2,4-difluorophenyl)-3-((1-ethylpiperidin-4-yl)methyl)-9-(trifluoromethyl)-2H-[1,4]thiazino[2,3,4-ij]quinazolin-5(3H)-one 1,1-dioxide]",51.5
15,"C=CC(=O)N1CCN(c2nc(=O)n3c4c(c(-c5ccc(F)cc5F)c(C(F)(F)F)cc24)SC[C@@H]3COC)[C@@H](C)C1 [Example 435, (3S)-7-((S)-4-acryloyl-2-methylpiperazin-1-yl)-10-(2,4-difluorophenyl)-3-(methoxymethyl)-9-(trifluoromethyl)-2H-[1,4]thiazino[2,3,4-ij]quinazolin-5(3H)-one]",95.8
16,"C=CC(=O)N1CCN(c2nc(=O)n3c4c(c(-c5ccc(F)cc5F)c(C(F)(F)F)cc24)S(=O)(=O)C[C@@H]3COC)[C@@H](C)C1 [Example 436, (3S)-7-((S)-4-acryloyl-2-methylpiperazin-1-yl)-10-(2,4-difluorophenyl)-3-(methoxymethyl)-9-(trifluoromethyl)-2H-[1,4]thiazino[2,3,4-ij]quinazolin-5(3H)-one 1,1-dioxide]",72.5
